Assay results taken from paper PMC3172288, “RLIP76, a Glutathione-Conjugate Transporter, Plays a Major Role in the Pathogenesis of Metabolic Syndrome” (PLoS ONE, 2011).

Legend:
[1] = biological target: T1, RLIP76 (Homo sapiens, UniProt Q15311); test: ATP-dependent uptake of 3H-GSHNE into RLIP76 proteoliposomes; format: biochemical; settings: 10 µM, labelled compound, 37 °C
T1 construct: gene RALBP1; purified recombinant RLIP76 reconstituted in proteoliposomes
T1 sequence (Q15311 2-655): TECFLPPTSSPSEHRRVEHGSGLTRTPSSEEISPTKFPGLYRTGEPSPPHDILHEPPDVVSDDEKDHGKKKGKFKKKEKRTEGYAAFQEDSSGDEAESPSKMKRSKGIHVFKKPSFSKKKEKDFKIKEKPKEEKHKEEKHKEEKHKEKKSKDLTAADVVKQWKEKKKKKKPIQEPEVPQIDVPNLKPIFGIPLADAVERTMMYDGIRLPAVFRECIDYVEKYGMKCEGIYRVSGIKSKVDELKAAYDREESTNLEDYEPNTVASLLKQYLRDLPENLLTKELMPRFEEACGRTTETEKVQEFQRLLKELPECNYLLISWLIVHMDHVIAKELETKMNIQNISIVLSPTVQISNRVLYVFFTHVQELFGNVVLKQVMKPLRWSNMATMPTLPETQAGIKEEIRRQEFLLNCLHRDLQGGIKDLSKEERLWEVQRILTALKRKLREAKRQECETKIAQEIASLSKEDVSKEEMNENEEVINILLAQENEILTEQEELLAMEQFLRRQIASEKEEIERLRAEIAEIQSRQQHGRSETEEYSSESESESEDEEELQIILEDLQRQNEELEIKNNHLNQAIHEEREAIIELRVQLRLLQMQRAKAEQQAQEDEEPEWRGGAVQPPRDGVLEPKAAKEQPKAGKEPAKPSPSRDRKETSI

[2] = biological target: T1, RLIP76; test: inhibition of ATP-dependent 3H-GSHNE uptake into RLIP76 proteoliposomes; format: biochemical; settings: 10 µM 3H-GSHNE, 0-100 µM drug, 30 min incubation at 37 °C

Row | Compound | ATP-dependent uptake of 3H-GSHNE into RLIP76 proteoliposomes [1] | inhibition of ATP-dependent 3H-GSHNE uptake into RLIP76 proteoliposomes [2]
1 | CCCCCC(O)C(CC=O)SC[C@H](NC(=O)CC[C@H](N)C(=O)O)C(=O)NCC(=O)O (stereo partly drawn) [3H-GSHNE] | ATP-dependent uptake of ^3H-GSHNE | –
2 | CN(C)C(=N)NC(=N)N [metformin] | – | metformin inhibits only half of the transport activity
3 | CN(CCOc1ccc(CC2SC(=O)NC2=O)cc1)c1ccccn1 (stereo not drawn) [rosiglitazone] | – | Inhibition of the transport activity of purified recombinant human RLIP76 towards physiological substrate
